Assay results as given in US7074334B2, “Method for determining the binding behavior of ligands which specifically bind to target molecules” (priority 2001, dated 2006).
“And” between values parts separate entries of the source, which are not always exact repeats. Equal entries are not always repeated.

Tests used:
D2-type receptors = molecular target: T1, D2-type receptors (Sus scrofa, UniProt F1SM69); experiment: MS binding assay with marker spiroperidol in striatal membrane fraction, unbound marker quantified; set-up: species or system porcine
T1 construct: As native material which contains both D1 and D2 receptors in sufficient amount; from tissue; host or cells: porcine brain striatum, membrane fraction

D1-type receptors = D1-type receptors (Sus scrofa, UniProt P50130); conditions: test substance 1 μmol/L
Chain of D1-type receptors (P50130 whole entry): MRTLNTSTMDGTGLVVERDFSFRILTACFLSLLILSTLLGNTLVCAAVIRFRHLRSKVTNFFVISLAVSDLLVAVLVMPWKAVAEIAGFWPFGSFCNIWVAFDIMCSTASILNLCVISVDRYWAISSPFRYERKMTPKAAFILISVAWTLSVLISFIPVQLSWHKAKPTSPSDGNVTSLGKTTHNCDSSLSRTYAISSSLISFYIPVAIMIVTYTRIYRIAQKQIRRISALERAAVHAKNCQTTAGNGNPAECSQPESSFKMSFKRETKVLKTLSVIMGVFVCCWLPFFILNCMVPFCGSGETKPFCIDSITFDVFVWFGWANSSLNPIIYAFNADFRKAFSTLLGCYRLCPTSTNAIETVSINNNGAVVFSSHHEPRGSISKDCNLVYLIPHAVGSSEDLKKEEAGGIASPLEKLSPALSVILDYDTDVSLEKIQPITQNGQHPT

T1 sequence (F1SM69 1-443): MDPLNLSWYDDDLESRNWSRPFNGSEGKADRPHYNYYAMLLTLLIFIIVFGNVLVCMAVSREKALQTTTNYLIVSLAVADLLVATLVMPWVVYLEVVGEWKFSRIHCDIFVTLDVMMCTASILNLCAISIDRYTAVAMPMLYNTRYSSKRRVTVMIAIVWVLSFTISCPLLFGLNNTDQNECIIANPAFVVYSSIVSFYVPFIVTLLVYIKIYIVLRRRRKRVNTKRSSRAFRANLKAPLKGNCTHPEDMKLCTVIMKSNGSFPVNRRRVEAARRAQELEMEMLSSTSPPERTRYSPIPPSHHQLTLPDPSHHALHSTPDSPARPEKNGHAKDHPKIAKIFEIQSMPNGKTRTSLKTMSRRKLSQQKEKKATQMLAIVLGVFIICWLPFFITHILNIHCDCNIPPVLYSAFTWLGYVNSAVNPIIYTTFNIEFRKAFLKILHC

Row | Structure (SMILES) | concentration of unbound marker spiroperidol (D2-type receptors) | inhibition of the specific binding of the marker spiroperidol to D2-type receptors (D2-type receptors; test substance 1 μmol/L) | inhibition of the specific binding of the marker SCH23390 to D1-type receptors (D1-type receptors)
1 | O=C(CCCN1CCC2(CC1)C(=O)NCN2c1ccccc1)c1ccc(F)cc1 [spiroperidol] | 1.93 nmol/L and 2.75 nmol/L and 2.78 nmol/L and 2.29 nmol/L and 1.89 nmol/L | – | –
2 | COC(=O)c1ccccc1 [methyl benzoate] | – | not capable of inhibiting | none is capable
